Reference: the supplement of paper PMC10307832

Tests used:
Assay in all cases: relative viability (nuclei count vs DMSO), 5 days (fraction); higher = more cells survive
[1] = compound: CC1=CC=C(C=C1)C(=O)CN2C3=C(CCCC3)SC2=N [Pifithrin_alpha] + CCNC(=O)c1noc(-c2cc(C(C)C)c(O)cc2O)c1-c1ccc(CN2CCOCC2)cc1 [Luminespib] (partner 0.01 µM)
How it was run: (§1)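 Relative viability divides the nuclei count in treated wells by that in vehicle wells. Lung cancer cell lines were seeded in 1536-well plates, dosed by pin tool the next day, and fixed and stained after 5 days in one step with final 0.05% Triton X-100, 1% formaldehyde and 1 ug/ml Hoechst. Dosing was a single drug or a fixed anchor-drug dose plus five library-drug doses (not always all listed) in √10 steps, and values are medians of duplicate plates imaged at 4×.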

[2] = compound: CC1=CC=C(C=C1)C(=O)CN2C3=C(CCCC3)SC2=N [Pifithrin_alpha] + Cc1nc(Nc2ncc(C(=O)Nc3c(C)cccc3Cl)s2)cc(N2CCN(CCO)CC2)n1 [Dasatinib] (partner 0.075 µM)
How it was run: as §1

Axitinib + OSI-027 = compound: CNC(=O)c1ccccc1Sc1ccc2c(/C=C/c3ccccn3)n[nH]c2c1 [Axitinib] + COc1cccc2cc(-c3nc([C@H]4CC[C@H](C(=O)O)CC4)n4ncnc(N)c34)[nH]c12 [OSI-027] (partner 0.5 µM)
How it was run: as §1

Bemcentinib + Vorinostat = compound: Nc1nc(Nc2ccc3c(c2)CC[C@@H](N2CCCC2)CC3)nn1-c1cc2c(nn1)-c1ccccc1CCC2 [Bemcentinib] + O=C(CCCCCCC(=O)Nc1ccccc1)NO [Vorinostat] (partner 1 µM)
How it was run: as §1

Cell Line | relative viability ([1]; first compound 3.162 µM) | relative viability ([1]; first compound 10 µM) | relative viability ([1]; first compound 31.62 µM) | relative viability ([1]; first compound 100 µM) | relative viability ([2]; first compound 3.162 µM) | relative viability ([2]; first compound 10 µM) | relative viability ([2]; first compound 31.62 µM) | relative viability ([2]; first compound 100 µM) | relative viability (Axitinib + OSI-027; first compound 0.005 µM) | relative viability (Axitinib + OSI-027; first compound 0.01581 µM) | relative viability (Axitinib + OSI-027; first compound 0.05 µM) | relative viability (Axitinib + OSI-027; first compound 0.1581 µM) | relative viability (Axitinib + OSI-027; first compound 0.5 µM) | relative viability (Bemcentinib + Vorinostat; first compound 0.04 µM) | relative viability (Bemcentinib + Vorinostat; first compound 0.1265 µM) | relative viability (Bemcentinib + Vorinostat; first compound 0.4 µM) | relative viability (Bemcentinib + Vorinostat; first compound 1.265 µM) | relative viability (Bemcentinib + Vorinostat; first compound 4 µM) | relative viability ([1]; first compound 1 µM) | relative viability ([2]; first compound 1 µM)
NCI-H1793 | 0.168 | 0.17 | 0.186 | 0.194 | 0.466 | 0.4 | 0.403 | 0.393 | 0.348 | 0.198 | 0.349 | 0.289 | 0.312 | 0.63 | 1.15 | 0.74 | 0.461 | 0.699 | – | –
NCI-H1915 | 1.25 | – | – | 1.08 | 0.295 | – | – | 0.276 | 0.615 | 0.653 | 0.65 | 0.64 | 0.756 | 0.508 | 0.518 | 0.547 | 0.55 | 0.491 | 0.972 | 0.284
NCI-H1944 | 0.633 | 0.588 | 0.42 | 0.504 | 0.214 | 0.217 | 0.173 | 0.196 | 0.389 | 0.404 | 0.42 | 0.424 | 0.392 | 0.521 | 0.611 | 0.608 | 0.527 | 0.561 | 0.694 | 0.217
NCI-H1975 | 0.151 | 0.199 | 0.189 | 0.181 | 0.242 | 0.2 | 0.214 | 0.2 | 0.813 | 0.744 | 0.714 | 0.673 | 0.711 | 0.709 | 0.805 | 0.776 | 0.808 | 0.777 | 0.291 | 0.257
NCI-H1993 | 0.658 | 0.704 | 0.621 | 0.66 | 0.532 | 0.581 | 0.559 | 0.608 | 0.549 | 0.573 | 0.582 | 0.481 | 0.484 | 0.739 | 0.716 | 1.07 | 0.981 | 1.05 | 0.716 | 0.531
NCI-H2009 | 1.04 | 0.926 | 0.701 | 0.967 | 0.293 | 0.301 | 0.186 | 0.244 | 0.699 | 0.684 | 0.646 | 0.697 | 0.887 | 0.671 | 0.783 | 0.71 | 0.723 | 0.722 | 1.07 | 0.316
NCI-H2023 | 0.637 | 0.364 | 0.277 | 0.34 | 0.324 | 0.348 | – | 0.275 | 0.437 | 0.446 | 0.396 | 0.337 | 0.468 | 0.77 | 0.783 | 0.619 | 0.748 | 0.66 | 0.544 | 0.432
NCI-H2085 | 0.404 | 0.513 | 0.387 | 0.387 | 0.262 | 0.222 | 0.268 | 0.174 | 0.827 | 0.691 | 0.857 | 0.77 | 0.66 | 0.762 | 0.822 | 0.778 | 0.795 | 0.764 | – | 0.205
NCI-H2087 | 0.172 | 0.153 | – | 0.135 | 0.869 | 0.83 | – | 0.862 | 0.622 | 0.558 | 0.696 | 0.562 | 0.831 | 0.567 | 0.836 | 1.1 | 0.665 | 0.678 | 0.169 | 0.982
NCI-H2126 | 0.956 | 0.783 | 0.709 | 0.72 | 0.48 | 0.431 | 0.451 | 0.391 | 0.685 | 0.766 | 0.733 | 0.643 | 0.667 | 0.76 | 0.787 | 0.791 | 0.812 | 0.889 | 0.751 | 0.392
NCI-H2170 | 0.53 | 0.742 | 0.542 | 0.705 | 0.467 | 0.512 | 0.39 | 0.404 | 0.721 | 0.686 | 0.703 | 0.715 | 0.631 | 0.732 | 0.855 | 0.992 | 0.745 | 0.897 | 0.849 | 0.68
NCI-H2228 | 0.15 | 0.178 | 0.149 | 0.124 | 0.471 | 0.421 | 0.425 | 0.363 | 0.518 | 0.611 | 0.716 | 0.532 | 0.659 | 0.574 | 0.878 | 0.763 | 0.749 | 0.756 | 0.145 | 0.516
NCI-H2342 | 0.665 | 0.699 | 0.773 | 0.71 | 0.316 | 0.317 | 0.31 | 0.31 | 0.571 | 0.614 | 0.663 | 0.633 | 0.638 | 0.833 | 0.807 | 0.746 | 0.678 | 0.808 | 0.653 | 0.255
NCI-H2347 | 0.541 | 0.392 | 0.288 | 0.254 | 0.309 | 0.301 | 0.333 | 0.291 | 0.482 | 0.407 | 0.422 | 0.423 | 0.51 | 0.544 | 0.596 | 0.718 | 0.67 | 0.575 | 0.921 | 0.273
NCI-H2405 | 0.571 | 0.536 | 0.668 | 0.515 | 0.197 | 0.205 | 0.188 | 0.196 | 0.654 | 0.666 | 0.675 | 0.643 | 0.722 | 0.991 | 1.07 | 1.1 | 1.08 | 1.06 | 0.757 | 0.156
NCI-H3122 | 0.106 | 0.0966 | – | 0.065 | 0.901 | 0.732 | – | 0.758 | 0.959 | 0.946 | 1.01 | 0.709 | 1.02 | 0.548 | 1.07 | 1.11 | 1.06 | 0.983 | 0.0988 | 0.82
PC-3 [JPC-3] | 0.779 | 0.63 | 0.635 | 0.587 | 0.928 | 0.671 | 0.933 | 0.917 | 0.762 | 0.668 | 0.809 | 0.72 | 0.915 | 0.898 | 0.735 | 0.784 | 0.725 | 0.752 | 0.74 | 0.971
PC-14 | 0.147 | 0.149 | 0.0887 | 0.0663 | 0.166 | 0.134 | 0.0654 | 0.0425 | 0.916 | 0.717 | 0.975 | 0.82 | 1.41 | 0.681 | 0.696 | 0.979 | 0.83 | 0.664 | 0.134 | 0.207
RERF-LC-KJ | 1.25 | 0.959 | 0.512 | 0.44 | 0.633 | 0.737 | 0.411 | 0.521 | 0.701 | 0.529 | 0.553 | 0.503 | 0.61 | 0.699 | 0.732 | 0.713 | 0.635 | 0.65 | 1.3 | 0.721
SK-LU-1 | 0.188 | 0.213 | – | 0.165 | 0.193 | 0.181 | – | 0.168 | 0.396 | 0.374 | 0.37 | 0.409 | 0.415 | 0.801 | 0.762 | 0.883 | 0.887 | 0.746 | 0.216 | 0.175
SK-MES-1 | 0.698 | 0.478 | 0.262 | 0.286 | 0.237 | 0.264 | 0.228 | 0.268 | 0.748 | 0.647 | 0.638 | 0.642 | 0.854 | 1.1 | 1.38 | 1.17 | 1.23 | 1.24 | 0.644 | 0.344
SW 900 | 0.194 | 0.142 | 0.167 | 0.19 | 0.487 | 0.318 | 0.349 | 0.307 | 0.646 | 0.536 | 0.562 | 0.564 | 0.699 | 0.461 | 0.924 | 0.602 | 0.303 | 0.501 | 0.2 | 0.366
SW 1573 | 0.214 | 0.188 | – | 0.175 | 0.513 | 0.602 | 0.36 | 0.577 | 0.592 | 0.592 | 0.68 | 0.508 | 0.724 | 0.662 | 0.785 | 0.873 | 0.879 | 0.765 | 0.245 | 0.616
UMC-11 | 1.22 | 1.36 | 1.08 | 1.48 | 0.656 | 0.514 | 0.436 | 0.638 | 0.494 | 0.504 | 0.438 | 0.498 | 0.521 | 0.387 | 0.359 | 0.344 | 0.321 | 0.376 | 0.98 | 0.465
